Results from patent US20200369626A1 (Washington University, priority 2019, published 2020).

Assays:
[1] = molecular target: T1, S1PR2 (Homo sapiens, UniProt O95136); assay: competitive [^32P]S1P binding assay on cell membranes, S1PR2; settings: read-out: [^32P]S1P competition assay IC50; S1PR2, radioligand [^32P]S1P
T1 construct: purchased
Method: The test compounds were dissolved in DMSO and diluted into test samples with increasing concentrations with assay buffer. Commercial cell membranes expressing recombinant human S1PR were diluted with assay buffer to make a 20-40 μg/mL of solution. […] The plate was incubated for 60 min at room temperature with shaking and terminated by collecting the membranes onto 96-well glass fiber (GF/B) filtration plates (Millipore, Billerica, Mass.). Each filter was washed with 200 μL of assay buffer for a total of five washes. […] The IC50 values were fitted from GraphPad Prism 6 using one site Nonlinear Regression.

[2] = molecular target: Human recombinant sphingosine-1-phosphate receptor 2 (Homo sapiens, UniProt O95136); assay: competitive binding assay using [^125I]34 as radioligand; settings: S1PR2, radioligand [^125I]34; read-out: [^125I]34 competition assay IC50
Sequence of Human recombinant sphingosine-1-phosphate receptor 2 (O95136 whole entry): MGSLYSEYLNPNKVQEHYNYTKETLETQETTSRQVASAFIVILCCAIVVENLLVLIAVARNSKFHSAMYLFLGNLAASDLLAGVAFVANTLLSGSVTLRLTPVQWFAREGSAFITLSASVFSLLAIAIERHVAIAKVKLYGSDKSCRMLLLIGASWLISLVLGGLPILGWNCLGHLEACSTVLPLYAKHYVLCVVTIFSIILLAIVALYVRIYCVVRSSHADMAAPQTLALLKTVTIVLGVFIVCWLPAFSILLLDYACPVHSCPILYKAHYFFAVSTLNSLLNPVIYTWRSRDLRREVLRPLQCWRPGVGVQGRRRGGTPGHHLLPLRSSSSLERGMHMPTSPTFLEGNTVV
Method: Then, 50 μL of different concentrations (0.01, 0.05, 0.1, 0.5, 1.0, 5.0, 10.0, 50.0, 100, 500, 1000 nM) of each ligand and 50 μL of [^125]34 (6.0 nM) was added to each well. The mixture was incubated for 1 h on a shaker at room temperature and then transferred onto a 96-well glass fiber filtration plates. The unbound activity was filtered and rapidly washed using ice-cold assay buffer (5×200 μL/well). After drying under reduced pressure, the filter bound radionuclide was measured by a Beckman 8000 automated gamma counter. The binding potency (IC50) was calculated using GraphPad Prism.

T1 sequence (O95136 whole entry): as above

## COc1ccc(NC(=O)Cn2c(=O)c3ccccc3n(CC(=O)Nc3cc(I)c(OC)cc3OC)c2=O)cc1 [Compound 34, N-(5-iodo-2,4-dimethoxyphenyl)-2-(3-(2-((4-methoxyphenyl)amino)-2-oxoethyl)-2,4-dioxo-3,4-dihydroquinazolin-1(2H)-yl)acetamide]
[1]
  IC50: 2.8 nM
[2]
  IC50: 4.4 ± 0.2 nM
